Measured values as given in PubChem BioAssay AID2060499 (Molecular Pharmacology Branch, DTP, NCI, 2025).
“And” between values parts separate entries of the source, which are not always exact repeats. Equal entries are not always repeated.

Tested on: 777334-354-R2-J4-PDC tumor spheroids with HUVEC/MSC, viability
Assay: Anticancer human tumor 777334-354-R2-J4-PDC patient-derived pancreatic adenocarcinoma cell line growth inhibition [GQUAD]
Settings: for viability, T/C: stronger effect = lower value
Excerpt: DNA G-quadruplex Stabilizer Agents in Combinations in Complex Spheroids
A high-throughput screen of multi-cell type tumor spheroids was designed to identify active combinations of DNA G-quadruplex stabilizer agents and targeted small molecules. Complex spheroids include a stromal component modeled by human endothelial cells (HUVEC) and fibroblasts modeled by human mesenchymal stem cells (MSCs). The concentration ranges selected for each drug and investigational agent were based upon clinically achievable concentrations if the clinical Cmax of the agent was known.
Compounds. The drugs and investigational agents: pidnarulex (CX-5461; NSC782164), APTO-253 (NSC789042), BRACO-19 (NSC847499), peposertib (NSC802822), ceralasertib (NSC780249), elimusertib (NSC800525), camonsertib (NSC841442), AZD-1390 (NSC803789), olaparib (NSC753686), talazoparib (NSC767125), ART-558 (NSC835418), sotorasib (NSC818433), MRTX-1133 (NSC836407), SN-38 (NSC673596), topotecan (NSC609699), etoposide (NSC141540), doxorubicin (NSC123127), gemcitabine (NSC613327), 5-fluorouracil (NSC19893), paclitaxel (NSC125973), vemurafenib (NSC761431), panobinostat (NSC761190), R-306465 (JNJ-16241199; NSC773264), adavosertib (NSC754352), TP-3654 (NSC805149), carboplatin (NSC241240), KSQ-4279 (NSC840948), and staurosporine (NSC755774) were obtained from the National Cancer Institute (NCI) Developmental Therapeutics Program Chemical Repository (34). The FDA-approved anticancer drug set is available from the NCI Developmental Therapeutics Program. […] The stock solutions were prepared in dimethyl sulfoxide (DMSO, Sigma-Aldrich, St. Louis, MO, cat. D2650) at 800-fold the tested concentration and stored at -70 degrees C prior to their use. All drugs and investigational agents were tested over a range starting from a high concentration at or near the clinical Cmax and decreasing in half-log increments. If the clinical Cmax for an agent had not been determined, the highest concentration tested was 10 microM.
2.3 Cell Culture. All cells were maintained in an incubator at 37 degrees C and 5% CO2 with 95% humidity. The PDC lines were cultured according to standard operating procedures established by the NCI PDMR. All PDCs were thawed and cultured in Matrigel-coated flasks prepared with a working solution of 1X Ham's F-12 nutrient mix, without supplementation (Invitrogen, cat. 11765054), 100 U/mL penicillin-streptomycin (Invitrogen, cat. 15140122), and 2.5% Matrigel (Corning Inc., cat. 354248) for the first three passages. The 857933-349-R-J2-PDC line was cultured in 6C/Colon 1B media, which includes advanced DMEM/F-12 (Thermo Fisher Scientific, cat. 12634028), 10 mM HEPES (Thermo Fisher Scientific, cat. 15630080), 1X GlutaMAX supplement (Thermo Fisher Scientific, cat. 35050061), 0.1 mg/mL primocin (InvivoGen, cat. ant-pm-2), 10% defined fetal bovine serum, heat inactivated (HyClone Laboratories Inc., cat. SH30070.03HI), 50% L-WRN conditioned media (ATCC, cat. CRL-3276), 1.25 mM N-Acetyl-L-cysteine (Sigma-Aldrich, cat. A9165), 10 mM nicotinamide (Sigma-Aldrich, cat. N0636), 1X B-27 supplement (Thermo Fisher Scientific, cat. 17504044), 1X N-2 supplement (Thermo Fisher Scientific, cat. 17502048), 10 microM Y-27632 dihydrochloride (Tocris Bioscience, cat. 1254), and 50 ng/mL human EGF recombinant protein (Thermo Fisher Scientific, cat. PHG0311). The 485176-168-R4-J1-PDC line was cultured in Panc media, which includes all 6C/Colon 1B media components plus 100 ng/mL human FGF-10 (Thermo Fisher Scientific, cat. 100-26), 500 nM SB-431542 (Selleckchem, cat. S1067), and gastrin (Tocris, cat. 3006).
[…]
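Note: spheroids exposed to compounds for 7 days before readout.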

| SMILES | viability, T/C (compound 0.0316 µM) | viability, T/C (compound 0.1 µM) | viability, T/C (compound 0.316 µM) | viability, T/C (compound 1 µM) | viability, T/C (compound 3.16 µM) | viability, T/C (compound 10 µM) | IC50 (curve of compound) | viability, T/C (compound 0.000999 µM) | viability, T/C (compound 0.00316 µM) | viability, T/C (compound 0.00999 µM) | viability, T/C (compound 0.0999 µM) | IC50 (compound alone, run of 03/26/2024) [nM] |
| --- | --- | --- | --- | --- | --- | --- | --- | --- | --- | --- | --- | --- |
| C#Cc1c(F)ccc2cc(O)cc(-c3ncc4c(N5CC6CCC(C5)N6)nc(OCC56CCCN5CC(F)C6)nc4c3F)c12 (stereo unspecified) | 45.7% and 46.4% and 48.8% | 38.8% and 41.4% and 41.3% | 35.2% and 32.8% and 38.1% | 30.4% and 28.5% and 34% | 26.4% and 36.1% and 29.3% | 20.9% and 19.6% and 22.6% | < 31.6 nM | – | – | – | – | – |
| C=CC(=O)N1CCN(c2nc(=O)n(-c3c(C)ccnc3C(C)C)c3nc(-c4c(O)cccc4F)c(F)cc23)C(C)C1 (stereo unspecified) | 87.7% and 105% and 106% | 103% and 97.4% and 81.4% | 95.8% and 89.4% and 109% | 96.2% and 111% and 105% | 113% (2×) and 100% | 115% and 100% and 101% | > 10000 nM | – | – | – | – | – |
| C=CCn1c(=O)c2cnc(Nc3ccc(N4CCN(C)CC4)cc3)nc2n1-c1cccc(C(C)(C)O)n1 | 93.8% and 101% and 99.7% | 85.8% and 102% and 88% | 81.1% and 84.7% and 74.9% | 43.1% and 45.4% and 41.5% | 35.6% and 37.4% and 39% | 30.4% and 38.4% and 35.2% | 821 nM and 869 nM and 787 nM | – | – | – | – | – |
| CC(=O)O[C@H]1C(=O)[C@@]2(C)[C@H]([C@H](OC(=O)c3ccccc3)[C@]3(O)C[C@H](OC(=O)[C@H](O)[C@@H](NC(=O)c4ccccc4)c4ccccc4)C(C)=C1C3(C)C)[C@]1(OC(C)=O)CO[C@@H]1C[C@@H]2O | 78.3% and 74% and 80.3% | 61.3% and 56% and 57.1% | 47.8% and 50% and 43.4% | 46% and 46.2% and 44.1% | 45.2% and 46.1% and 39.9% | 47.9% and 45% and 51.3% | 260 nM and 276 nM and 193 nM | – | – | – | – | – |
| CC(C)(O)C1CCC(Nc2ccc3ncc(-c4cccc(C(F)(F)F)c4)n3n2)CC1 (stereo unspecified) | 84.4% and 103% and 93.7% | 80.4% and 88.1% and 93.2% | 82.7% and 83.2% and 94.2% | 62.6% and 55.1% and 44.4% | 32.1% and 31.5% and 31.2% | 34.5% and 39.3% and 36.5% | 1640 nM and 1290 nM and 876 nM | – | – | – | – | – |
| CC(C)n1c(=O)n(C)c2cnc3cc(F)c(-c4ccc(OCCCN5CCCCC5)nc4)cc3c21 | 105% and 94.1% and 104% | 106% and 95% and 101% | 113% (2×) and 111% | 104% and 99.3% and 108% | 110% and 98.5% and 112% | 101% and 94.6% and 86.2% | > 10000 nM | – | – | – | – | – |
| CC1COCCN1c1cc(-c2ccnn2C)c2ccnc(-c3ccn[nH]3)c2n1 (stereo unspecified) | 94.2% and 88.2% and 75% | 73.7% and 75.3% and 83.1% | 65.4% and 62.4% and 50.8% | 47.7% and 49.3% and 49.1% | 37.1% and 41.5% and 48.4% | 26.8% and 33.3% and 28.8% | 901 nM and 1020 nM and 1110 nM | – | – | – | – | – |
| CC1COCCN1c1cc(C2(O)CC3CCC(C2)O3)c2cnn(-c3ccn[nH]3)c2n1 (stereo unspecified) | 93.3% and 104% and 95% | 76.1% and 79.5% and 78.4% | 52.4% and 54.4% and 51.5% | 39.1% and 38.5% and 37.8% | 30.1% and 36.1% and 34.6% | 20.1% and 19.8% and 21.7% | 447 nM and 516 nM and 435 nM | – | – | – | – | – |
| CC1COCCN1c1cc(C2(S(C)(=N)=O)CC2)nc(-c2ccnc3[nH]ccc23)n1 (stereo unspecified) | 112% and 90.9% and 98.4% | 106% (2×) and 86.8% | 105% and 99.7% and 115% | 105% and 84% and 101% | 89.7% and 86.5% and 112% | 63% and 58.7% and 63.3% | > 10000 nM | – | – | – | – | – |
| CCCS(=O)(=O)Nc1ccc(F)c(C(=O)c2c[nH]c3ncc(-c4ccc(Cl)cc4)cc23)c1F | 107% and 111% and 99.5% | 109% and 105% and 92.8% | 114% and 127% and 108% | 110% and 120% and 102% | 98.7% and 115% and 111% | 37.2% and 34.2% and 33.4% | 7890 nM and 7980 nM and 7600 nM | – | – | – | – | – |
| CC[C@@]1(O)C(=O)OCc2c1cc1n(c2=O)Cc2cc3c(CN(C)C)c(O)ccc3nc2-1 | 87.9% and 83.3% and 90.2% | – | 39.7% and 35.4% and 42.7% | – | – | – | 209 nM and 154 nM and 203 nM | 102% and 101% and 87.9% | 98.6% and 112% and 91.4% | 95.8% and 97.9% and 93.1% | 68.3% and 59.5% and 61.7% | – |
| CCc1c2c(nc3ccc(O)cc13)-c1cc3c(c(=O)n1C2)COC(=O)[C@]3(O)CC | 24% and 23.4% and 23.9% | – | 8.77% and 9.22% and 10.1% | – | – | – | 5.78 nM and 5.06 nM and 4.18 nM | 87.3% and 77.7% and 87.8% | 62.7% and 59.7% and 52.4% | 38% and 36% and 36.3% | 15.9% and 15.4% and 13.3% | – |
| CN(C)c1ccc(Nc2c3ccc(NC(=O)CCN4CCCC4)cc3nc3cc(NC(=O)CCN4CCCC4)ccc23)cc1 | 98.1% [middle of 12 runs] | 101% [middle of 12 runs] | 94.1% [middle of 12 runs] | 94.9% [middle of 12 runs] | 90.3% [middle of 12 runs] | 81.3% [middle of 12 runs] | – | – | – | – | – | > 10000 |
